Results: PMC7529893, “Structural basis for substrate recognition and chemical inhibition of oncogenic MAGE ubiquitin ligases” (Nature Communications, 2020)
Like-named read-outs stand apart in the source and are kept apart here.

Biological target: T1, MAGE-A11:PCF11 interaction (GST-MAGE-A11 MHD and FAM-PCF11_4) (Homo sapiens, UniProt P43364)
T1 construct: GST-MAGE-A11 MHD (human MAGE-A11 MHD amino acid 218-429); made in house; host or cells: E. coli BL21(DE3)
T1 sequence (P43364 218-429): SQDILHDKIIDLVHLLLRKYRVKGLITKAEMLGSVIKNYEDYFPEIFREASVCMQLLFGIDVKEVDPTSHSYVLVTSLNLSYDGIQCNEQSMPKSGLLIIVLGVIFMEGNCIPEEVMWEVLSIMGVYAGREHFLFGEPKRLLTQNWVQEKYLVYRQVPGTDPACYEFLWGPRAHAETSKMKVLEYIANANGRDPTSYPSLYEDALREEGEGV
Test: TR-FRET dose response test of compounds for disruption of MAGE-A11:PCF11 binding
Method: The TR-FRET assay buffer with a formula of 50 mM Tris pH 7.5, 20 mM MgCl2, 0.1 mg/ml BSA and 1 mM DTT was freshly prepared before each experiment. All TR-FRET assays were performed in black 384-well plates with 20 µl/well assay volume in the TR-FRET assay buffer at room temperature (~25 °C). All peptides or compounds were solubilized in DMSO. To test the competitive activity of peptides or compounds against the interaction between GST-MAGE-A11 MHD and FAM-PCF11_4 peptide, 10 µl/well peptide or compound at specified concentration was dispensed into a black 384-well low volume plate, followed by 5 µl/well FAM-PCF11_4 (800 nM), 5 µl/well Tb-anti-GST (20 nM), and GST-MAGE-A11 MHD (20 nM). The assay components in each well was then mixed by shaking the plate on an IKA MTS 2/4 digital microtiter plate shaker (IKA Works; Wilmington, NC, USA) for 1 min. The plate was further centrifuged in an Eppendorf 5810 centrifuge with an A-4-62 swing-bucket rotor (Eppendorf AG, Hamburg, Germany) at 201 g for 30 s. The plate was then incubated for 90 min with a lid to avoid light exposure to the assay components. After incubation, the fluorescent emission signals at 520 nm and 490 nm channels of individual wells were measured with a PHERAstar FS plate reader (BMG Labtech; Durham, NC, USA) by using a 340 nm excitation filter, 100 µs delay time, and 200 µs integration time. The TR-FRET fluorescence emission ratio (TR-FRET signal) for each well was presented as 10,000 × 520 nm/490 nm, which was used directly for curve fitting, or further converted to %Inhibition based on the respective positive and negative controls. The graphic software GraphPad Prism 4.81 (GraphPad Software; La Jolla, CA, USA) was used to generate curves and derive IC50 values of tested peptides or compounds, if applicable.
TR-FRET screen for identifying MAGE-A11 small molecule inhibitors was performed as follows. The primary one-concentration screening and subsequent 10 or 20-concentration dose-response tests were accomplished with an automated High Throughput Screening system (HighRes Biosolutions, Beverly, MA)[30]. In the primary screening, 15 µl/well FAM-PCF11_4 (267 nM) was first dispensed with a Multidrop Combi Reagent Dispenser (Thermo Fisher Scientific, Waltham, MA) to black 384-well low-volume assay plates. The plates were spun down with a Velocity11 VSpin microplate centrifuge (Agilent Technologies, Santa Clara, CA). In total, 30 nl/well of 10 mM compound/DMSO solutions, or DMSO alone, were transferred from compound plates (the St. Jude FDA drug and bioactive library, Drug-like library and Lead-like library) or a control plate to the assay plates with a Pin Tool (V&P Scientific, San Diego, CA). The compounds were arrayed in columns 3–12 and columns 15–24 of compound plates. The controls were arrayed in columns 1, 2, 13, and 14 of a compound plate. In all, 5 µl/well Tb-anti-GST (20 nM) and GST-MAGE-A11 (20 nM) or 5 µl/well Tb-anti-GST (20 nM) alone was then dispensed to selected wells with a Multidrop Combi Reagent Dispenser. The final assay volume was 20 µl/well. The final DMSO concentration was 0.25% (v/v) (0.1% (v/v) from the FAM-PCF11_4 DMSO stock solution and 0.15% (v/v) from the compound-DMSO solution or the DMSO for the control wells). The final tested compound concentration was 15 µM. The final FAM-PCF11_4 concentration was 200 nM and the final Tb-anti-GST concentration was 5 nM. The final GST-MAGE-A11 concentration was 5 nM except for those selected positive control wells in which GST-MAGE-A11 was not presented. The plates were then shaken with a big bear shaker (Big Bear Automation, Santa Clara, California) and spun down with the Velocity11 VSpin microplate centrifuge for 20 s. The plates were then incubated at room temperature in a Liconic incubator (Liconic US, Woburn, MA) for 90 min. The TR-FRET signals for individual wells were measured with a PHERAstar FS plate reader. The %Inhibition of each tested inhibitor was calculated by using Eq. 1.

[1] = Dose response TR-FRET screening of nine scaffold groups against MAGE-A11:PCF11, read-out: consensus IC50
[2] = Supplementary Data 3, 59 quinoline compounds, read-out: TR-FRET IC50
[3] = Supplementary Data 4, read-out: TR-FRET, IC50

Structure (SMILES)	IC50 [1]	other results
COc1ccc(F)cc1CNCCCNc1ccnc2cc(Oc3cccc(N(C)C)c3)ccc12 [SJ000311233-1]	5.63 µM	–
CC(C)(C)c1ccc(Oc2ccc3c(NCCCNCc4ccco4)ccnc3c2)cc1 [SJ000311234-1, CC(C)(C)c1ccc(Oc2ccc3c(NCCCNCc4occc4)ccnc3c2)cc1]	–	IC50 [2]: 32.1 µM
COc1cccc(CNCCCNc2ccnc3cc(Oc4ccc(C(C)(C)C)cc4)ccc23)c1O [SJ000311235-1]	7.65 µM	–
CC(C)(C)c1ccc(Oc2ccc3c(NCCCNCc4cccc5c4OCO5)ccnc3c2)cc1 [SJ000311236-1]	8.67 µM	–
COc1ccc(F)cc1CNCCCNc1ccnc2cc(Oc3ccc(C(C)(C)C)cc3)ccc12 [SJ000311237-1]	6.29 µM	–
COc1cccc(CNCCCNc2ccnc3cc(-c4ccc(F)cc4)ccc23)c1O [SJ000311239-1]	33.3 µM	–
Fc1ccc(-c2ccc3c(NCCCNCc4cccc5c4OCO5)ccnc3c2)cc1 [SJ000311240-1]	25 µM	–
COc1ccc(F)cc1CNCCCNc1ccnc2cc(-c3ccc(F)cc3)ccc12 [SJ000311241-1]	38.9 µM	–
COc1cccc(CNCCCNc2ccnc3cc(Cc4ccc(F)cc4)ccc23)c1O [SJ000311243-1]	43.6 µM	–
Fc1ccc(Cc2ccc3c(NCCCNCc4cccc5c4OCO5)ccnc3c2)cc1 [SJ000311244-1]	42.3 µM	–
COc1ccc(F)cc1CNCCCNc1ccnc2cc(Cc3ccc(F)cc3)ccc12 [SJ000311245-1]	35.1 µM	–
CC(C)CCc1ccc2c(NCCCNCc3cccc4c3OCO4)ccnc2c1 [SJ000311248-1]	27.7 µM	–
c1coc(CNCCCNc2ccnc3cc(CC4CCCCC4)ccc23)c1 [SJ000311250-1, C(CNCc1occc1)CNc2ccnc3cc(CC4CCCCC4)ccc23]	–	IC50 [2]: 54.9 µM
COc1cccc(CNCCCNc2ccnc3cc(CC4CCCCC4)ccc23)c1O [SJ000311251-1]	29.2 µM	–
c1cc(CNCCCNc2ccnc3cc(CC4CCCCC4)ccc23)c2c(c1)OCO2 [SJ000311252-1]	16 µM	–
COc1ccc(F)cc1CNCCCNc1ccnc2cc(CC3CCCCC3)ccc12 [SJ000311253-1]	26.3 µM	–
COc1cccc(CNCCCNc2ccnc3cc(CCc4ccccc4)ccc23)c1O [SJ000311255-1]	26.5 µM	–
COc1ccc(F)cc1CNCCCNc1ccnc2cc(CCc3ccccc3)ccc12 [SJ000311256-1]	37.1 µM	–
c1ccc(CCc2ccc3c(NCCCNCc4cccc5c4OCO5)ccnc3c2)cc1 [SJ000311257-1]	62.3 µM	–
COc1cccc(CNCCCNc2ccnc3cc(CC(C)C)ccc23)c1O [SJ000311259-1]	68.5 µM	–
c1coc(CNCCCNc2ccnc3cc(C4CCCCC4)ccc23)c1 [SJ000311262-1, C(CNCc1occc1)CNc2ccnc3cc(ccc23)C4CCCCC4]	–	IC50 [2]: > 70 µM
COc1cccc(CNCCCNc2ccnc3cc(C4CCCCC4)ccc23)c1O [SJ000311263-1]	32.4 µM	–
c1cc(CNCCCNc2ccnc3cc(C4CCCCC4)ccc23)c2c(c1)OCO2 [SJ000311264-1]	23.7 µM	–
COc1ccc(F)cc1CNCCCNc1ccnc2cc(C3CCCCC3)ccc12 [SJ000311265-1]	24.2 µM	–
CCC(CC)c1ccc2c(NCCCNCc3cccc(OC)c3O)ccnc2c1 [SJ000311267-1]	9.95 µM	–
CCC(CC)c1ccc2c(NCCCNCc3cccc4c3OCO4)ccnc2c1 [SJ000311268-1]	28.9 µM	–

Structure (SMILES)	IC50 [1]	other results
CCC(CC)c1ccc2c(NCCCNCc3cc(F)ccc3OC)ccnc2c1 [SJ000311269-1]	43 µM	–
FC(F)(F)c1cc(-c2ccc3c(NCCCNCc4cccc5c4OCO5)ccnc3c2)cc(C(F)(F)F)c1 [SJ000311272-1]	9.02 µM	–
COc1ccc(F)cc1CNCCCNc1ccnc2cc(-c3cc(C(F)(F)F)cc(C(F)(F)F)c3)ccc12 [SJ000311273-1]	7.69 µM	–
c1coc(CNCCCNc2ccnc3cc(-c4cccc5ccccc45)ccc23)c1 [SJ000311274-1, C(CNCc1occc1)CNc2ccnc3cc(ccc23)c4cccc5ccccc45]	–	IC50 [2]: > 70 µM
COc1cccc(CNCCCNc2ccnc3cc(-c4cccc5ccccc45)ccc23)c1O [SJ000311275-1]	16 µM	–
c1cc(CNCCCNc2ccnc3cc(-c4cccc5ccccc45)ccc23)c2c(c1)OCO2 [SJ000311276-1]	31.2 µM	–
COc1ccc(F)cc1CNCCCNc1ccnc2cc(-c3cccc4ccccc34)ccc12 [SJ000311277-1]	10.3 µM	–
FC(F)(F)c1ccc(-c2ccc3c(NCCCNCc4ccco4)ccnc3c2)cc1 [SJ000311278-1, FC(F)(F)c1ccc(cc1)c2ccc3c(NCCCNCc4occc4)ccnc3c2]	–	IC50 [2]: 22.7 µM
COc1cccc(CNCCCNc2ccnc3cc(-c4ccc(C(F)(F)F)cc4)ccc23)c1O [SJ000311279-1]	9.52 µM	–
FC(F)(F)c1ccc(-c2ccc3c(NCCCNCc4cccc5c4OCO5)ccnc3c2)cc1 [SJ000311280-01]	–	IC50 [3]: 4.07 µM
FC(F)(F)c1ccc(-c2ccc3c(NCCCNCc4cccc5c4OCO5)ccnc3c2)cc1 [SJ000311280-1]	15.7 µM	–
COc1ccc(F)cc1CNCCCNc1ccnc2cc(-c3ccc(C(F)(F)F)cc3)ccc12 [SJ000311281-01]	–	IC50 [3]: 5.58 µM
COc1ccc(F)cc1CNCCCNc1ccnc2cc(-c3ccc(C(F)(F)F)cc3)ccc12 [SJ000311281-1]	13.4 µM	–
COc1cccc(CNCCCNc2ccnc3cc(-c4ccccc4)ccc23)c1O [SJ000311283-1]	24.1 µM	–
c1ccc(-c2ccc3c(NCCCNCc4cccc5c4OCO5)ccnc3c2)cc1 [SJ000311284-01]	–	IC50 [3]: 20.6 µM
c1ccc(-c2ccc3c(NCCCNCc4cccc5c4OCO5)ccnc3c2)cc1 [SJ000311284-1]	22.2 µM	–
COc1ccc(F)cc1CNCCCNc1ccnc2cc(-c3ccccc3)ccc12 [SJ000311285-1]	28.2 µM	–
COc1cccc(CNCCCNc2ccnc3cc(-c4ccc(C(C)(C)C)cc4)ccc23)c1O [SJ000311287-1]	4.67 µM	–
CC(C)(C)c1ccc(-c2ccc3c(NCCCNCc4cccc5c4OCO5)ccnc3c2)cc1 [SJ000311288-1]	6.87 µM	–
COc1ccc(F)cc1CNCCCNc1ccnc2cc(-c3ccc(C(C)(C)C)cc3)ccc12 [SJ000311289-1]	4.62 µM	–
c1coc(CNCCCNc2ccnc3cc(-c4ccc5c(c4)OCO5)ccc23)c1 [SJ000311290-1, C(CNCc1occc1)CNc2ccnc3cc(ccc23)c4ccc5OCOc5c4]	–	IC50 [2]: > 70 µM
COc1cccc(CNCCCNc2ccnc3cc(-c4ccc5c(c4)OCO5)ccc23)c1O [SJ000311291-1]	24.6 µM	–
c1cc(CNCCCNc2ccnc3cc(-c4ccc5c(c4)OCO5)ccc23)c2c(c1)OCO2 [SJ000311292-1]	30.5 µM	–
COc1ccc(F)cc1CNCCCNc1ccnc2cc(-c3ccc4c(c3)OCO4)ccc12 [SJ000311293-1]	29.9 µM	–
COc1cccc(CNCCCNc2ccnc3cc(Cc4cccc(C(F)(F)F)c4)ccc23)c1O [SJ000311299-1]	27.5 µM	–
FC(F)(F)c1cccc(Cc2ccc3c(NCCCNCc4cccc5c4OCO5)ccnc3c2)c1 [SJ000311300-1]	12.8 µM	–
